Data reported in patent US11839616B2, “Ocular pharmaceutical compositions” (THE REGENTS OF THE UNIVERSITY OF CALIFORNIA, priority 2017, dated 2023).
Entries after “also recorded” stand apart in the source; their conditions may differ. Where two headings read alike, the source gives them in different places.

Assays:
CFTR [1] = target: T1, CFTR (Oryctolagus cuniculus, UniProt Q00554); test: short-circuit current in freshly isolated rabbit conjunctiva, CFTR; type: cell-based
T1 construct: ocular surface PD measurements provide information about CFTR function in its native environment; from tissue; host or cells: rabbit ocular surface in vivo (cornea and conjunctiva); freshly isolated rabbit forniceal and palpebral conjunctiva
T1 sequence (Q00554 whole entry): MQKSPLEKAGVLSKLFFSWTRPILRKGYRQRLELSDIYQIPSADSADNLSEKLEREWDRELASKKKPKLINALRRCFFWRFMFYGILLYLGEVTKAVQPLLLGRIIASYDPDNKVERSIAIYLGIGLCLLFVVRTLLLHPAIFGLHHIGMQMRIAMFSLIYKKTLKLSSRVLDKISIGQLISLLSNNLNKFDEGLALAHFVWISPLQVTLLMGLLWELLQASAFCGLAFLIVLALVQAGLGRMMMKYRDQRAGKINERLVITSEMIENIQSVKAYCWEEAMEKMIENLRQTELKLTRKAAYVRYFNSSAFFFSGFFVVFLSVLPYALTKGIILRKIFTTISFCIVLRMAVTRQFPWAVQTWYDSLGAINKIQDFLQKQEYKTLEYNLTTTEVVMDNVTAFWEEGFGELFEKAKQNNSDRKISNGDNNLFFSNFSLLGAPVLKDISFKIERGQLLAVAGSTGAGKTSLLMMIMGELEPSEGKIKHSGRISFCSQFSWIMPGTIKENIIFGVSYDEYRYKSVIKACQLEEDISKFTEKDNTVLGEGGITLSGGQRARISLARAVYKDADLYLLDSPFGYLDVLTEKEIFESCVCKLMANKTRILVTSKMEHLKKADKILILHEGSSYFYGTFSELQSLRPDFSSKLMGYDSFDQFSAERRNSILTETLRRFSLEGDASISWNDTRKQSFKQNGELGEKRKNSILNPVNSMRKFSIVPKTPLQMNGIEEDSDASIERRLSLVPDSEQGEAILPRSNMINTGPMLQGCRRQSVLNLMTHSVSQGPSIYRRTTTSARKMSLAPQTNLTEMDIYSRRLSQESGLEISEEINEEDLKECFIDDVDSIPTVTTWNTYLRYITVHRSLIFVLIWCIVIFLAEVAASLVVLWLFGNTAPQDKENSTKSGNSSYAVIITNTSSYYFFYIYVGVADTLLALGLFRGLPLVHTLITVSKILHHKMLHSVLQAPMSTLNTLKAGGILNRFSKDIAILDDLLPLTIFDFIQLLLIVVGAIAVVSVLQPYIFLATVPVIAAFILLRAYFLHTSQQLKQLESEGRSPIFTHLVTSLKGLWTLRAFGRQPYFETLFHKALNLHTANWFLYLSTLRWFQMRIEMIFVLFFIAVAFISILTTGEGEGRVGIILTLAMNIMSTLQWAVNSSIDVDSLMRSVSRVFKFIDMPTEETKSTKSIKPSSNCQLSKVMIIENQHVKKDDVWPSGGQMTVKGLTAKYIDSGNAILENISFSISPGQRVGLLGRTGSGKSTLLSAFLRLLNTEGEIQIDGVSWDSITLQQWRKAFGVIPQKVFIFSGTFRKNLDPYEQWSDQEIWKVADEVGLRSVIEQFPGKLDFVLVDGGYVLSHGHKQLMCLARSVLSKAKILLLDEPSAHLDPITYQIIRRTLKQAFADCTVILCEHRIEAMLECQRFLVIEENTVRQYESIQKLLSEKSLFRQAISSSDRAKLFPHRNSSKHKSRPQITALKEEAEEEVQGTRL
Experimental: Short-circuit current was measured in freshly isolated rabbit conjunctiva, as described^16 with modification. Rabbits were euthanized by injection of 150 mg/kg euthasol into the marginal ear vein. The entire eyeball with eyelids intact was removed from the orbit to preserve conjunctival epithelium integrity. Within 10 min a sheet of forniceal and palpebral conjunctiva was dissected, mounted onto a P2304 tissue slider (Physiologic Instruments, San Diego, CA), and placed into the Ussing chamber. The apical and basolateral chambers contained (in mM): 120 NaCl, 3 KCl, 1 CaCl2, 1 MgCl2, 10 glucose, 25 NaHCO3 and 5 HEPES, pH 7.4. […] Hemichambers were connected to a DVC-1000 voltage clamp (World Precision Instruments Inc., Sarasota, FL) via Ag/AgCl electrodes and 3 M KCl agar bridges.
In separate electrophysiological studies, CFTR activation was measured in freshly isolated conjunctiva ex vivo by short-circuit current analysis.

CFTR [2] = target: T1, CFTR; test: open-circuit ocular surface potential difference (PD) in anesthetized rabbits, CFTR; type: in vivo; conditions: rabbit
Experimental: Open-circuit transepithelial potential difference (PD, in mV) at the ocular surface was measured continuously in anesthetized rabbits using a procedure modified from that established in mice. […] Rabbits were intubated and anesthetized with isoflurane, and respiratory rate, blood pressure and body temperature were monitored. For PD recording, solutions (see below) were serially perfused at 10 mL/min through PE-90 plastic tubing using a gravity multi-reservoir pinch-valve system (ALA Scientific, Westbury, NY) and a variable-flow peristaltic pump (medium flow model; Thermo Fisher Scientific, Fair Lawn, NJ). A probe catheter was fixed onto an adjustable stereotaxic frame with the tip immersed in solution contacting the ocular surface. Excess fluid was aspirated by continuous suction (low-powered wall vacuum) using ⅛-inch tubing (inner diameter 3/32 inch) positioned 3 mm from the orbit in order to maintain near-constant perfusate volume in contact with cornea, bulbar conjunctiva and palpebral conjunctiva without fluid runoff. The measuring electrode contacted the perfusion catheter and was connected to a high-impedance voltmeter (IsoMilivolt Meter; World Precision Instruments, Sarasota, FL). The reference electrode was grounded using a winged, 25-gauge needle filled with normal saline inserted subcutaneously in the abdomen. The measuring and reference electrodes consisted of Ag/AgCl with 3 M KCl agar bridges.
All solutions contained 10 M indomethacin to prevent CFTR activation by prostaglandins.

rabbits [3] = test: Schirmer Tear Test II after single topical dose (pharmacodynamics); type: in vivo, rabbit
Experimental: (§1) Tear production was measured using the anesthetized Schirmer Tear Test (STT, Eagle Vision, Memphis TN). To minimize reflex tearing, one drop of 0.5% proparacaine hydrochloride (Akorn, Lake Forest, TL) was placed onto the corneal surface and excess fluid was absorbed at the medial canthus using eye spear sponges (Fine Science Tools, Foster City, CA). After 5 min the notched strip was inserted into the lower lateral conjunctival fornix, maintaining contact with the lateral cornea. The wetted length (mm) of the strip indicated by blue dye appearance was read after 5 min.
Serial STT measurements were done before and at 1, 3, 6, 9, 12 and 24 hours following application of a single 30-μL drop of Compound A formulation (or vehicle alone) into the conjunctival sac. Both eyes received the same treatment to control for potential contralateral effects of a given treatment. Pharmacokinetics and Tissue Distribution
Compound A was tested for its efficacy in augmenting tear fluid production in rabbits. Prior work identified a formulation (0.325% CMC in Ringer's solution containing 0.015% BAC and 1% DMSO) that stably solubilized Compound A and was effective when delivered topically to mice.^15 A single application of 3 nmol Compound A ([…] of a 100 µM solution) increased tear volume by ˜60% for at least 9 hours compared to vehicle (FIG. 3A). […] When 3 nmol of Compound A was delivered in a more viscous formulation containing 0.625% (instead of 0.3%) CMC, to potentially increase Compound A ocular surface residence time, compound efficacy was unchanged (FIG. 3C).

[4] = tissue levels by LC/MS following chronic administration; type: in vivo; conditions: rabbit, 3 nmol twice-daily for 28 days
Experimental: In chronic treatment studies, Compound A (3 nmol, or formulation control) was given twice daily (8 am and 4 pm) for 28 days. Two mL of blood was collected from the marginal ear vein in EDTA tubes. Rabbits were then euthanized using 150 mg/kg euthasol, and ocular tissues, serum and peripheral organs were collected. Using a surgical microscope, 150 μL of aqueous humor was collected through the peripheral cornea using a 25-gauge needle, and 300 μL of vitreous fluid was aspirated through the pars plana with a 23-gauge needle. Following transcardial perfusion with heparinized phosphate-buffered saline (PBS), eyes were enucleated with lids intact, and the cornea, iris/ciliary body, lens, bulbar, forniceal and palpebral conjunctiva, and retina of both eyes were dissected, weighed, homogenized in 1:4 mixture of water:ethyl acetate (10 mL/1 g tissue) and centrifuged (3000 rpm for 15 min). Plasma, aqueous and vitreous samples were each mixed with 3 volumes of ethyl acetate and centrifuged for 15 min at 13,200 rpm, and the supernatant was evaporated and re-dissolved in HPLC eluent (100 μL of 1:3 water:acetonitrile containing 0.1% formic acid) for LC/MS analysis. Also, brain, kidney, heart and liver were removed, weighed, mixed with 1:4 mixture of water:ethyl acetate (10 mL/1 g tissue), and homogenized. The homogenized samples were vortexed and centrifuged (3000 rpm for 15 min), and the ethyl acetate-containing supernatant was evaporated, and then re-dissolved in HPLC eluent for LC/MS analysis. The lower limit of detection for Compound A was ˜0.2 pg/mg of homogenized tissue or biological fluid, which was defined as giving a signal-to-noise ratio >3.

rabbits [5] = test: chronic administration, ocular toxicity (clinical examination, histology); type: in vivo; conditions: rabbit
Experimental: In chronic treatment studies, eyes were treated twice daily for 28 days as described above. STT, intraocular pressure (IOP), and central corneal thickness were measured on days 0, 7, 14, 21 and 28. Slit lamp examinations were performed on days 0, 14 and 28 by a board-certified ophthalmologist blinded to treatment status. STT was done one hour after the first treatment of the day (9 am). IOP was measured with a Tonolab rebound tonometer (Colonial Medical Supply, Windham, NH). Central corneal thickness was measured using the Corneo-Gage Plus 2 pachymeter (Sonogage Inc., Cleveland, OH). […] One minute later, photographs of the eye were taken with a digital camera and staining was evaluated according to a 12-point scale as described^17: each corneal quadrant was scored in a blinded fashion on a 3-point scale: grade 0, no staining; grade 1, sporadic staining (involving <25% of the total surface); grade 2, diffuse punctate staining (25-75%); and grade 3, coalesced punctate staining (≥75%). The total grade is reported as the sum of scores from all 4 quadrants, ranging from 0 to 12. Conjunctival congestion, chemosis, discharge, corneal haze or neovascularization, anterior chamber cellular reaction or flare, iris neovascularization, lens opacification or loss of red reflex, were each rated using a modified McDonald-Shadduck scale on a four-point scale, where zero is normal.
A subset of chronically treated eyes were enucleated with eyelids intact after transcardial perfusion with PBS followed by 4% paraformaldehyde, and left overnight in 4° C. in 30% sucrose. […] Cryosections (8 μm thickness) were stained with hematoxylin and eosin (H&E) using a standard protocol.

CFTR [6] = target: CFTR (Homo sapiens, UniProt P13569); conditions: cited from earlier work; for extent of CFTR activation / EC50: cell cultures; for EC50: read-out: EC50 of CFTR activation
Sequence of CFTR (Homo sapiens, UniProt P13569) (P13569 whole entry, species assumed): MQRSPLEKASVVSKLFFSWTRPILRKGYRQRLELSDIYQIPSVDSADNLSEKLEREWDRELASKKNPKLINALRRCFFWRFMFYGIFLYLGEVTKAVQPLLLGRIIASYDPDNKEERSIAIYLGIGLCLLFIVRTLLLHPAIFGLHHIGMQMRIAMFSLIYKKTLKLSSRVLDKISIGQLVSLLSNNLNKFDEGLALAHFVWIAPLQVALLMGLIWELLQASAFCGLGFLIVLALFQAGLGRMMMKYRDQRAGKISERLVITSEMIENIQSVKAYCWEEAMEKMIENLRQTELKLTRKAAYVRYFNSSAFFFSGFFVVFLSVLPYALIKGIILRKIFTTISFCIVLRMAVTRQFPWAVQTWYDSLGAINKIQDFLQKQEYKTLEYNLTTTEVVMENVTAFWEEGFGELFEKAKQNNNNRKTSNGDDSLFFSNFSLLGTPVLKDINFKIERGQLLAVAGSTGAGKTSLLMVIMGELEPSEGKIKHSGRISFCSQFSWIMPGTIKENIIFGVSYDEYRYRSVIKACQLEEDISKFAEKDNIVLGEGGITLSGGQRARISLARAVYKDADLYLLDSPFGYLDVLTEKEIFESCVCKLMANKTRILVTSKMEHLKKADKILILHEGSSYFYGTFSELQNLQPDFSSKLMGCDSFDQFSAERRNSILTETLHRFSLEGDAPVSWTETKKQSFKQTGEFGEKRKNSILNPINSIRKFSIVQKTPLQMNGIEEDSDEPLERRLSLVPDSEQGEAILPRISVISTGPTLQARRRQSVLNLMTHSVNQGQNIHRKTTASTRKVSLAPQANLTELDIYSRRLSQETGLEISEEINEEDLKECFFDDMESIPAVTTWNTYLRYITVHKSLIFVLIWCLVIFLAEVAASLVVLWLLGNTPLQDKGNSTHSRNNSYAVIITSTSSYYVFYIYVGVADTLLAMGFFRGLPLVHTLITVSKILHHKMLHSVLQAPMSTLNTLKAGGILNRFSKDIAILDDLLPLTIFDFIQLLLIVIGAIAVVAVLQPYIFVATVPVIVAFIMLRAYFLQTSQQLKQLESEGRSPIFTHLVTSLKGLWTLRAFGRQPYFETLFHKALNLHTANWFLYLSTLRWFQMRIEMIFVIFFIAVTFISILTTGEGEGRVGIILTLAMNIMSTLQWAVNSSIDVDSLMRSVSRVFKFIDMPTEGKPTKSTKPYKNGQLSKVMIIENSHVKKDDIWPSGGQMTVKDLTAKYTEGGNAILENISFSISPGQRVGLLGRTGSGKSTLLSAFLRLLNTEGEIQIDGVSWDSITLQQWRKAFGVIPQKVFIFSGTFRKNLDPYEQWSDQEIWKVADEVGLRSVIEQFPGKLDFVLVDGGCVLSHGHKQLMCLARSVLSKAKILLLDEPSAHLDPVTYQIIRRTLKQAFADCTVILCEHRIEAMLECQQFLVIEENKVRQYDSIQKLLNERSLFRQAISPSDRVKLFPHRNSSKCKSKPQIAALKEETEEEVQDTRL

mice [7] = conditions: cited from earlier work
rabbits [8] = test: chronic administration, tear volume by STT; type: in vivo; conditions: rabbit, 3 nmol twice-daily for 28 days
Experimental: as §1
In chronic treatment studies, Compound A (3 nmol, or formulation control) was given twice daily (8 am and 4 pm) for 28 days. Two mL of blood was collected from the marginal ear vein in EDTA tubes. Rabbits were then euthanized using 150 mg/kg euthasol, and ocular tissues, serum and peripheral organs were collected. […]
In chronic treatment studies, eyes were treated twice daily for 28 days as described above. STT, intraocular pressure (IOP), and central corneal thickness were measured on days 0, 7, 14, 21 and 28. […] IOP was measured with a Tonolab rebound tonometer (Colonial Medical Supply, Windham, NH). Central corneal thickness was measured using the Corneo-Gage Plus 2 pachymeter (Sonogage Inc., Cleveland, OH). […]

cAMP = conditions: prior studies; cited from earlier work
CFTR-deficient mice = conditions: cited from earlier work
[9] = pharmacokinetics in tear fluid by LC/MS; type: in vivo; conditions: rabbit
Experimental: Compound A was quantified by liquid chromatography/mass spectroscopy (LC/MS) at 15 min, 1 hour, 2 hours, 6 hours and 24 hours after a single, 3-nmol topical dose. To recover Compound A at indicated times, three eye washes of 30 μL sterile PBS were done with solution recovered from the lateral and medial canthi after manual eyelid blinking using 50-μL glass capillary tubes. Pooled washes were diluted in three volumes of ethyl acetate, centrifuged at 13,000 rpm for 15 min, and the collected supernatant was analyzed by LC/MS (Waters 2695 HPLC with Micromass ZQ).^14 LC was done on an Xterra MS C18 column (2.1 mm×100 mm, 3.5 μm) with 0.2 mL/min water/acetonitrile containing 0.1% formic acid, 12 min linear gradient, 5-95% acetonitrile.
Corresponding compound concentrations in tear fluid (open circles, right ordinate) were estimated using tear volumes deduced from STT measurements in FIG. 2A.

[10] = liver; in vitro microsomal stability; cited from earlier work
mice [11] = conditions: lacrimal gland ablation, three times daily; cited from earlier work
ENaC [12] = test: open-circuit ocular surface potential difference (PD) in anesthetized rabbits, ENaC; conditions: rabbit, normal Cl- solution with amiloride 100 μM
Experimental: Open-circuit transepithelial potential difference (PD, in mV) at the ocular surface was measured continuously in anesthetized rabbits using a procedure modified from that established in mice. […] Rabbits were intubated and anesthetized with isoflurane, and respiratory rate, blood pressure and body temperature were monitored. For PD recording, solutions (see below) were serially perfused at 10 mL/min through PE-90 plastic tubing using a gravity multi-reservoir pinch-valve system (ALA Scientific, Westbury, NY) and a variable-flow peristaltic pump (medium flow model; Thermo Fisher Scientific, Fair Lawn, NJ). A probe catheter was fixed onto an adjustable stereotaxic frame with the tip immersed in solution contacting the ocular surface. Excess fluid was aspirated by continuous suction (low-powered wall vacuum) using ⅛-inch tubing (inner diameter 3/32 inch) positioned 3 mm from the orbit in order to maintain near-constant perfusate volume in contact with cornea, bulbar conjunctiva and palpebral conjunctiva without fluid runoff. The measuring electrode contacted the perfusion catheter and was connected to a high-impedance voltmeter (IsoMilivolt Meter; World Precision Instruments, Sarasota, FL). The reference electrode was grounded using a winged, 25-gauge needle filled with normal saline inserted subcutaneously in the abdomen. […]

ENaC [13] = test: short-circuit current in freshly isolated rabbit conjunctiva, amiloride; conditions: amiloride 10 μM
Experimental: Short-circuit current was measured in freshly isolated rabbit conjunctiva, as described^16 with modification. Rabbits were euthanized by injection of 150 mg/kg euthasol into the marginal ear vein. The entire eyeball with eyelids intact was removed from the orbit to preserve conjunctival epithelium integrity. Within 10 min a sheet of forniceal and palpebral conjunctiva was dissected, mounted onto a P2304 tissue slider (Physiologic Instruments, San Diego, CA), and placed into the Ussing chamber. The apical and basolateral chambers contained (in mM): 120 NaCl, 3 KCl, 1 CaCl2, 1 MgCl2, 10 glucose, 25 NaHCO3 and 5 HEPES, pH 7.4. Solutions were bubbled with 95% O2/5% CO2 and maintained at 37° C. Hemichambers were connected to a DVC-1000 voltage clamp (World Precision Instruments Inc., Sarasota, FL) via Ag/AgCl electrodes and 3 M KCl agar bridges.

P2Y2 receptors = P2Y2 receptors (Homo sapiens, UniProt P41231); conditions: phase III trials in the United States; cited from earlier work
Sequence of P2Y2 receptors (P41231 whole entry): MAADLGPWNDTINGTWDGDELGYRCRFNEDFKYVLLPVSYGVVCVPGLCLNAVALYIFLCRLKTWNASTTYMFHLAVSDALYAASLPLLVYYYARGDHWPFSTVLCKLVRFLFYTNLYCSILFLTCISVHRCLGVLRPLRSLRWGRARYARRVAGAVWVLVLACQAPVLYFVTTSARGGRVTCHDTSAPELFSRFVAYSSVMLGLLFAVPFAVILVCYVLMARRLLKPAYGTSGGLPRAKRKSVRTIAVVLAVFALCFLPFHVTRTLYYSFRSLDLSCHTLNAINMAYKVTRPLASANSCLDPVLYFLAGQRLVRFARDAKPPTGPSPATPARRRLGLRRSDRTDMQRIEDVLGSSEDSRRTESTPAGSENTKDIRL

[14] = rabbit, single topical dose of 3 nmol
[15] = 25 picomol topical administration

Which results are given for “3-[(3-Trifluoromethyl)phenyl]-5-[(4-carboxyphenyl)methylene]-2-thioxo-4-thiazolidinone [CFTRinh-172, reference compound]”?
effect on the increases in short-circuit current (CFTR [1]; inhibitor added last): inhibited; effect on the PD changes (CFTR [2]; CFTRinh-172 10 μM in final perfusion solution): largely reversed

What does the source list for CNc1nc(Nc2ccccc2)nc(OCC(F)(F)C(F)F)n1 [Compound A, N-Methyl-N′-phenyl-6-(2,2,3,3-tetrafluoropropoxy)-1,3,5-triazine-2,4-diamine]?
increase in tear fluid volume (rabbits [3]; from STT wetting using reported relationship between STT wetting and volume): 2.7 µL; compound efficacy in more viscous formulation (rabbits [3]; rabbit, 3 nmol, 0.625% (instead of 0.3%) CMC): unchanged; increase in tear volume compared to vehicle (rabbits [3]; rabbit, single application of 3 nmol, 0.3% CMC): ~60%; tear production (rabbits [3]; rabbit, single dose 0.75 nmol): no significant increase; activity on tear production (rabbits [3]; rabbit, single dose 1.5 nmol): reduced duration of activity; augmentation in tear production by STT, average over 9 hours (rabbits [3]; [14]): 5.3 mm; duration of increase in tear volume / tear secretion (rabbits [3]; [14]): at least 9 hours; level in aqueous and vitreous fluid, lens and iris/ciliary body [4]: near or below the limit of detection; level in blood, heart, brain, liver and kidney [4]: below the limit of detection; level in vitreous fluid [4]: not detected; rank of levels in ocular tissues [4]: cornea>conjunctiva>>retina; concentration at 28 days ([4]; retina, topical, read-out: level in retina, equivalent concentration): < 10 nM; IOP, vehicle vs. treated eyes (rabbits [5]; 3 nmol twice-daily for 28 days): No significant differences; Lissamine green staining (rabbits [5]; 3 nmol twice-daily for 28 days): no injury to the ocular surface; central corneal thickness, vehicle vs. treated eyes (rabbits [5]; 3 nmol twice-daily for 28 days): No significant differences; slit-lamp evaluation (rabbits [5]; 3 nmol twice-daily for 28 days): no evidence of conjunctival hyperemia, anterior chamber inflammation, or lens opacification; histology of cornea, conjunctiva, lens, ciliary body, retina (rabbits [5]; day 28): no pathological changes; acute ocular irritation (blinking, behavior) (rabbits [5]; following topical administrations): No apparent acute ocular irritation; extent of CFTR activation (CFTR [6]): fully activated CFTR; EC50 (CFTR [6]): ~0.25 µM; potency of CFTR activation (CFTR [6]; prior studies): nanomolar potency; duration of doubled tear volume (mice [7]; delivered topically): four; tear volume (mice [7]; delivered topically): doubled tear volume; tear volume (STT) (rabbits [8]): augmented tear volume in a sustained fashion without tachyphylaxis; elevation of total cellular cAMP (cAMP): without detectable elevation; effect in CFTR-deficient mice (CFTR-deficient mice): without effect; also recorded: absence of Compound A effect; change in short-circuit current (CFTR [1]; 1 and then 10 μM Compound A after forskolin 25 nM): further increased; EC50 (CFTR [1]; rabbit conjunctiva ex vivo, data at 1 vs. 10 μM, read-out: apparent EC50 of CFTR activation (short-circuit current)): < 1 µM; time at predicted therapeutic concentrations in tear fluid ([9]; 3-nmol dose, concentrations estimated using tear volumes from STT): at least several hours; Compound A recovered from tear fluid over time ([9]; single topical dose of 3 nmol, three eye washes): approximate exponential decline; time to maximal CFTR activation at the ocular surface (PD) (CFTR [2]; after exposure): within a few minutes; change in ocular surface PD (CFTR [2]; low Cl- + amiloride, Compound A 1 and 10 μM): substantial depolarization; hepatic metabolism [10]: rapidly metabolized by the liver; also recorded: rapid predicted hepatic metabolism

Which results are given for CCN(CC)c1nc(Nc2ccccc2)nc(OC(C(F)(F)F)C(F)(F)F)n1 [Compound C]?
corneal epithelial disruption (mice [11]): prevented corneal epithelial disruption; pathology when administered after development of dry eye (mice [11]): reversed pathology; tear volume (mice [11]): normalized tear volume; extent of CFTR activation (CFTR [6]): fully activated CFTR; EC50 (CFTR [6]): ~0.03 µM; duration of increase in tear volume (mice [7]; [15]): 8 h; tear volume (mice [7]; [15]): sustained increase in tear volume

What does the source list for N=C(N)NC(=O)c1nc(Cl)c(N)nc1N [amiloride]?
change in ocular surface PD (ENaC [12]): initial depolarization; effect on short-circuit current (ENaC [13]): no effect

For O=c1ccn([C@@H]2O[C@H](COP(=O)(O)OP(=O)(O)OP(=O)(O)OP(=O)(O)OC[C@H]3O[C@@H](n4ccc(=O)[nH]c4=O)[C@H](O)[C@@H]3O)[C@@H](O)[C@H]2O)c(=O)[nH]1 [diquafosol], which “efficacy in dry eye” value (P2Y2 receptors) is on record?
Its value is “did not show efficacy”.
